Here are results for three molecules from ChEMBL document CHEMBL1130994, “3-trifluoromethylcarbacephems: synthesis of broad spectrum antibacterial compounds” (1998).

Converted amounts (≈) assume the structure as drawn.

Common to all, as to format: functional
For one assay, the system named is Acinetobacter. The assay is described as follows: Compound was evaluated for inhibitory activity against AC12 Acinetobacter.
A further assay deals with Citrobacter. The assay is described as follows: Compound was evaluated for inhibitory activity against CF17 Citrobacter.
Assay [1] concerns Enterobacter cloacae. The assay is described as follows: Compound was evaluated for inhibitory activity against 265a Enterobacter cloacae beta-lactamase.
For assay [2], the system named is Enterobacter cloacae. The assay is described as follows: Compound was evaluated for inhibitory activity against EB5 Enterobacter cloacae.
Assay [3] concerns Enterococcus faecalis. The assay is described as follows: Compound was evaluated penicillin susceptible.
The subject of assay [4] is Escherichia coli. Briefly: Compound was evaluated for inhibitory activity against EC14 Escherichia coli sensitive.
The test system of assay [5] is Escherichia coli. Briefly: Compound was evaluated for inhibitory activity against TEM Escherichia coli beta-lactamase.
Assay [6] has as its system Klebsiella aerogenes. The assay is described as follows: Compound was evaluated for inhibitory activity against EB17 Enterobacter aerogenes.
For assay [7], the system named is Klebsiella aerogenes. The assay is described as follows: Compound was evaluated for inhibitory activity against C32 Enterobacter aerogenes.
Assay [8] relates to Haemophilus influenzae. The assay is described as follows: Compound was evaluated for inhibitory activity against 76 Haemophilus influenzae beta-lactamase.
Assay [9] relates to Haemophilus influenzae. Briefly: Compound was evaluated for inhibitory activity against C.L Haemophilus influenzae ampicillin sensitive.
Assay [10] relates to Klebsiella pneumoniae. The assay is described as follows: Compound was evaluated for inhibitory activity against KAE Klebsiella pneumoniae.
Assay [11] concerns Klebsiella pneumoniae. The assay is described as follows: Compound was evaluated for inhibitory activity against X26 Klebsiella pneumoniae.
For a further assay, the system named is Morganella morganii. The assay is described as follows: Compound was evaluated for inhibitory activity against PR15 Morganella morganii.
Another assay concerns Providencia rettgeri. Briefly: Compound was evaluated for inhibitory activity against C24 Providencia rettgeri.
Another assay relates to Providencia stuartii. The assay is described as follows: Compound was evaluated for inhibitory activity against PR33 Providencia stuartii.
In another assay the test system is Salmonella. The assay is described as follows: Compound was evaluated for inhibitory activity against X514 Salmonella.
The test system of assay [12] is Serratia. Briefly: Compound was evaluated for inhibitory activity against SE3 Serratia.
The test system of assay [13] is Serratia. Briefly: Compound was evaluated for inhibitory activity against X99 Serratia.
The subject of a further assay is Streptococcus pyogenes. Briefly: Compound was evaluated for inhibitory activity against C203 Streptococcus pyogenes Gp.A.
Assay [14] deals with Staphylococcus aureus. The assay is described as follows: Compound was evaluated for inhibitory activity against S13E Staphylococcus aureus methicillin resistant penicillin resistant macrolide sensitive (PBP2a producer).
The test system of assay [15] is Staphylococcus aureus. Briefly: Compound was evaluated for inhibitory activity against X1.1 Staphylococcus aureus penicillin sensitive.
Assay [16] deals with Staphylococcus aureus. The assay is described as follows: Compound was evaluated for inhibitory activity against X400S Staphylococcus aureus methicillin resistant and macrolide resistant.
The test system of assay [17] is Streptococcus pneumoniae. Briefly: Compound was evaluated for inhibitory activity against Park S Streptococcus pneumoniae.
For assay [18], the system named is Enterococcus faecalis. The assay is described as follows: Compound was evaluated for inhibitory activity against 2041 Enterococcus faecalis Gp.D streptococcus penicillin susceptible.
For assay [19], the system named is Streptococcus pneumoniae. The assay is described as follows: 32 Compound was evaluated for inhibitory activity against Park S Streptococcus pneumoniae.

In the case of `N[C@@H](C(=O)N[C@@H]1C(=O)N2C(C(=O)O)=C(C(F)(F)F)CC[C@H]12)c1ccc(O)cc1`, the MIC against Acinetobacter stood at 16 µM (≈ 6.39 µg/mL); in the assay with Citrobacter, 4 µM (≈ 1.6 µg/mL); against Enterobacter cloacae [1], 1 µM (≈ 0.399 µg/mL); against Enterobacter cloacae [2], 1 µM (≈ 0.399 µg/mL); against Enterococcus faecalis [3], 32 µM (≈ 12.8 µg/mL); with Escherichia coli [4], 0.25 µM (≈ 0.0998 µg/mL). For the same molecule, the MIC in the assay with Escherichia coli [5] was 0.5 µM (≈ 0.2 µg/mL); in the assay with Klebsiella aerogenes [6], 0.5 µM (≈ 0.2 µg/mL); with Klebsiella aerogenes [7] it was 0.25 µM (≈ 0.0998 µg/mL); with Haemophilus influenzae [8], 0.5 µM (≈ 0.2 µg/mL); against Haemophilus influenzae [9], 0.5 µM (≈ 0.2 µg/mL); with Klebsiella pneumoniae [10] it was 1 µM (≈ 0.399 µg/mL). Further, the MIC against Klebsiella pneumoniae [11] came out at 0.06 µM (≈ 0.024 µg/mL); in the assay on Morganella morganii, 16 µM (≈ 6.39 µg/mL); against Providencia rettgeri, 4 µM (≈ 1.6 µg/mL); against Providencia stuartii, 1 µM (≈ 0.399 µg/mL); against Salmonella it was 0.06 µM (≈ 0.024 µg/mL); in the assay on Serratia [12], 16 µM (≈ 6.39 µg/mL). For the same molecule, the MIC in the assay with Serratia [13] is 2 µM (≈ 0.799 µg/mL); with Streptococcus pyogenes, 0.06 µM (≈ 0.024 µg/mL); in the assay with Staphylococcus aureus [14], 32 µM (≈ 12.8 µg/mL); in the assay on Staphylococcus aureus [15] it was 0.5 µM (≈ 0.2 µg/mL); with Staphylococcus aureus [16], 64 µM (≈ 25.6 µg/mL); in the assay on Streptococcus pneumoniae [17] it was 0.25 µM (≈ 0.0998 µg/mL).
Take `N[C@@H](C(=O)N[C@@H]1C(=O)N2C(C(=O)O)=C(C(F)(F)F)CC[C@H]12)c1cccc(F)c1`: the MIC with Acinetobacter amounted to 32 µM (≈ 12.8 µg/mL); with Citrobacter, 16 µM (≈ 6.42 µg/mL); in the assay with Enterobacter cloacae [1] it was 32 µM (≈ 12.8 µg/mL); against Enterobacter cloacae [2], 16 µM (≈ 6.42 µg/mL); against Escherichia coli [4], 4 µM (≈ 1.61 µg/mL); against Escherichia coli [5] it was 2 µM (≈ 0.803 µg/mL). The MIC with Klebsiella aerogenes [6] was 8 µM (≈ 3.21 µg/mL); with Enterococcus faecalis [18], 32 µM (≈ 12.8 µg/mL); against Klebsiella aerogenes [7] it was 16 µM (≈ 6.42 µg/mL); in the assay on Haemophilus influenzae [8] it was 2 µM (≈ 0.803 µg/mL); against Haemophilus influenzae [9], 2 µM (≈ 0.803 µg/mL); in the assay on Klebsiella pneumoniae [10] it was 16 µM (≈ 6.42 µg/mL). For the same molecule, the MIC in the assay on Klebsiella pneumoniae [11] came to 2 µM (≈ 0.803 µg/mL); against Morganella morganii it was 32 µM (≈ 12.8 µg/mL); against Providencia rettgeri it was 16 µM (≈ 6.42 µg/mL); in the assay on Providencia stuartii, 16 µM (≈ 6.42 µg/mL); in the assay on Salmonella, 2 µM (≈ 0.803 µg/mL); in the assay on Serratia [12], 64 µM (≈ 25.7 µg/mL). Besides, the MIC in the assay on Serratia [13] came to 32 µM (≈ 12.8 µg/mL); with Streptococcus pneumoniae [19] it was 0.25 µM (≈ 0.1 µg/mL); against Streptococcus pyogenes it was 0.06 µM (≈ 0.0241 µg/mL); against Staphylococcus aureus [14] it was 32 µM (≈ 12.8 µg/mL); in the assay with Staphylococcus aureus [15], 2 µM (≈ 0.803 µg/mL); in the assay with Staphylococcus aureus [16] it was 64 µM (≈ 25.7 µg/mL).
For `CCS(=O)(=O)Nc1cccc([C@@H](N)C(=O)N[C@@H]2C(=O)N3C(C(=O)O)=C(C(F)(F)F)CC[C@H]23)c1`, the MIC in the assay on Acinetobacter came to 64 µM (≈ 31.4 µg/mL); with Citrobacter, 32 µM (≈ 15.7 µg/mL); against Enterobacter cloacae [1] it was 32 µM (≈ 15.7 µg/mL); with Enterobacter cloacae [2], 32 µM (≈ 15.7 µg/mL); in the assay with Enterococcus faecalis [3], 32 µM (≈ 15.7 µg/mL); against Escherichia coli [4] it was 1 µM (≈ 0.49 µg/mL). The MIC with Escherichia coli [5] was found to be 1 µM (≈ 0.49 µg/mL); against Klebsiella aerogenes [6] it was 16 µM (≈ 7.85 µg/mL); in the assay with Klebsiella aerogenes [7], 16 µM (≈ 7.85 µg/mL); with Haemophilus influenzae [8] it was 4 µM (≈ 1.96 µg/mL); with Haemophilus influenzae [9], 1 µM (≈ 0.49 µg/mL); against Klebsiella pneumoniae [10], 32 µM (≈ 15.7 µg/mL). For the same molecule, the MIC in the assay on Klebsiella pneumoniae [11] worked out at 0.25 µM (≈ 0.123 µg/mL); against Morganella morganii, 16 µM (≈ 7.85 µg/mL); against Providencia rettgeri, 32 µM (≈ 15.7 µg/mL); against Providencia stuartii, 16 µM (≈ 7.85 µg/mL); in the assay with Salmonella, 1 µM (≈ 0.49 µg/mL); against Serratia [12] it was 128 µM (≈ 62.8 µg/mL). In addition, the MIC against Serratia [13] was 64 µM (≈ 31.4 µg/mL); against Streptococcus pyogenes, 0.06 µM (≈ 0.0294 µg/mL); in the assay with Staphylococcus aureus [14], 32 µM (≈ 15.7 µg/mL); in the assay on Staphylococcus aureus [15], 4 µM (≈ 1.96 µg/mL); in the assay on Staphylococcus aureus [16], 32 µM (≈ 15.7 µg/mL); with Streptococcus pneumoniae [17] it was 0.13 µM (≈ 0.0638 µg/mL).
